From patent publication US20170158697A1, “Protein Kinase Inhibitors” (Pharmascience Inc., priority 2013, published 2017) come the findings set out here.

The structures appear in SMILES notation.

Assay [1] has as its target T1, histidine tagged recombinant human full-length Bruton Agammaglobulinemia Tyrosine Kinase (Btk) (Homo sapiens, UniProt Q06187).
T1 construct: histidine tagged recombinant human full-length Bruton Agammaglobulinemia Tyrosine Kinase (Btk); His tag
Description: Btk kinase inhibition assay, Method A (fluorescence polarization, KinEASE FP Fluorescein Green). Particulars: 10 μM ATP, 250 μM substrate, 60 minutes, Ki by Cheng-Prusoff from IC50, read-out: Inhibition of Btk, EC50 (nM) (legend: Ki). Type of assay: biochemical. Here is the method:
Fluorescence polarization-based kinase assays were performed in 384 well-plate format using histidine tagged recombinant human full-length Bruton Agammaglobulinemia Tyrosine Kinase (Btk) and a modified protocol of the KinEASE™ FP Fluorescein Green Assay supplied from Millipore®. Kinase reaction were performed at room temperature for 60 minutes in presence of 250 μM substrate, 10 μM ATP and variable test article concentrations. The reaction was stopped with EDTA/kinease detection reagents. Phosphorylation of the substrate peptide was detected by fluorescence polarization measured with a Tecan 500 instrument. From the dose-response curve obtained, the IC50 was calculated using Graph Pad Prisms® using a non linear fit curve. The Km for ATP on each enzyme was experimentally determined and the Ki values calculated using the Cheng-Prusoff equation (see: Cheng Y, Prusoff W. H. (1973) Relationship between the inhibition constant (K1) and the concentration of inhibitor which causes 50% inhibition (I50) of an enzymatic reaction”. Biochem Pharmacol 22 (23): 3099-108). ki values are reported in Tables 2a and 2b: […]
A general note: Fluorescence polarisation rises when a labelled molecule tumbles more slowly, as on binding a larger partner.

In assay [2] the test system is splenocytes from CD1 mice. In words: Splenic cell proliferation assay (anti-IgM stimulated, Cell Titer-Glo). Conditions: Splenocyte; mouse splenocytes, 2.5 ug/ml anti-IgM F(ab')2 for 72 h; read-out: Inhibition of splenic cell proliferation, EC50. Type of assay: cell-based. Here is the method: Splenic Cell Proliferation Assay
Proliferation of splenocytes in response to anti-IgM can be blocked by inhibition of Btk. Splenocytes were obtained from 6 week old male CD1 mice (Charles River Laboratories Inc.). Mouse spleens were manually disrupted in PBS and filtered using a 70 um cell strainer followed by ammonium chloride red blood cell lysis. Cells were washed, resuspended in Splenocyte Medium (HyClone RPMI supplemented with 10% heat-inactivated FBS, 0.5× non-essential amino acids, 10 mM HEPES, 50 uM beta mercaptoethanol) and incubated at 37° C., 5% CO2 for 2 h to remove adherent cells. Suspension cells were seeded in 96 well plates at 50,000 cells per well and incubated at 37° C., 5% CO2 for 1 h. Splenocytes were pre-treated in triplicate with 10,000 nM curves of Formula I compounds for 1 h, followed by stimulation of cell proliferation with 2.5 ug/ml anti-IgM F(ab′)2 (Jackson ImmunoResearch) for 72 h. Cell proliferation was measured by Cell Titer-Glo Luminescent Assay (Promega). EC50 values (50% proliferation in the presence of compound as compared to vehicle treated controls) were calculated from dose response compound curves using GraphPad Prism Software.
Background: Cellular ATP, detected with luciferase, serves as a proxy for viable cell number.

Assay [3] concerns the target T2, human BTK kinase (hBTK) (Homo sapiens, UniProt Q06187).
T2 construct: purchased Eurofins Pharma Discovery Services UK Limited (assay service)
In words: Btk kinase inhibition assay, Method B (KinaseProfiler radiometric protein kinase assay, Eurofins). Type of assay: biochemical. Particulars: 40 minutes, 250 μM substrate. As to the method: In vitro potency of selected compound was defined against human BTK kinase (hBTK) using KinaseProfiler radiometric protein kinase assays performed at Eurofins Pharma Discovery Services UK Limited.
hBTK kinase is diluted in buffer and all compounds were prepared to 50× final assay concentration in 100% DMSO. This working stock of the compound was added to the assay well as the first component in the reaction, followed by the remaining components as detailed in the assay protocol listed above. The reaction was initiated by the addition of the MgATP mix. The kinase reaction was performed at room temperature for 40 minutes in presence of 250 μM substrate, 10 mM MgAcetate, [γ-33P-ATP] (specific activity approx. 500 cpm/pmol, concentration as required) and variable test article concentrations. The ATP concentrations in the assays were with 15 μM of the apparent. The reaction was stopped by the addition of 3% phosphoric acid solution. 10 μL of the reaction is then spotted onto a P30 filtermat and washed three times for 5 minutes in 75 mM phosphoric acid and once in methanol prior to drying and scintillation counting. In addition positive control wells contain all components of the reaction, except the compound of interest; however, DMSO (at a final concentration of 2%) were included in these wells to control for solvent effects as well as blank wells contain all components of the reaction, with a reference inhibitor replacing the compound of interest. This abolishes kinase activity and establishes the base-line (0% kinase activity remaining). The potency of each compound was reported by estimating the EC50.

T1 sequence (Q06187 whole entry): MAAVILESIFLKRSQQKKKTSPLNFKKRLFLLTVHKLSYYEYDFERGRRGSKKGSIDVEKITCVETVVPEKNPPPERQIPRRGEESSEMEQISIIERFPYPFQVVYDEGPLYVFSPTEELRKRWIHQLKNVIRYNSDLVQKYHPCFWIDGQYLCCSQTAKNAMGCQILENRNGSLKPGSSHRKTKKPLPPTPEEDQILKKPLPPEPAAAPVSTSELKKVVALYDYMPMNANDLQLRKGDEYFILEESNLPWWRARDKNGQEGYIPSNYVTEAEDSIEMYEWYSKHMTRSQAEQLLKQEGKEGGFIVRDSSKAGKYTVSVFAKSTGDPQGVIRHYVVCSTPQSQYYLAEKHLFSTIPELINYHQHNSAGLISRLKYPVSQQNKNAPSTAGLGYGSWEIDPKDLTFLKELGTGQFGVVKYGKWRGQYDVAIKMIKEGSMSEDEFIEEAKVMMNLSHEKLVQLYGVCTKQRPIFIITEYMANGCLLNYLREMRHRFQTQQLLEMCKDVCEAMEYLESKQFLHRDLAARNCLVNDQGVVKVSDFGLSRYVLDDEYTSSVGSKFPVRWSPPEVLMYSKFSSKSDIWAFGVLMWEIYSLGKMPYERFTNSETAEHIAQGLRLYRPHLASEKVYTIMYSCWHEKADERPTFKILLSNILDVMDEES
T2 sequence (Q06187 whole entry): as above

By Ki is commonly meant a measure of affinity in units of concentration, obtained from inhibition or displacement. Regarding `Cc1ncc(COc2cc(F)cc(Oc3ccc(-c4cn(C5CCOCC5)c5ncnc(N)c45)cc3)c2)s1` [Compound 5], the Ki in assay [1] was under 100 nM. Also, in assay [2], the EC50 is under 100 nM.
On to `CC(C)n1cc(-c2ccc(Oc3cc(F)cc(OCc4ccc(CO)nc4)c3)cc2)c2c(N)ncnc21` [Compound 21], for which the EC50 in assay [3] and in assay [2] was under 100 nM in each case.
With `Cc1ncc(COc2cc(Oc3ccc(-c4cn(C(C)C)c5ncnc(N)c45)cc3)ccc2F)cn1` [Compound 15], in assay [1], the inhibition constant (Ki) was 100 to 1000 nM. The EC50 in assay [2] lay in the range of 100 to 1000 nM.
With `CC(C)n1cc(-c2ccc(Oc3cc(F)cc(OCc4cnc(CO)nc4)c3)cc2)c2c(N)ncnc21` [Compound 20], the results for the EC50 in assay [3] and in assay [2] were under 100 nM and 100 to 1000 nM, respectively.
Turning to `Cc1ncc(COc2cc(F)cc(Oc3ccc(-c4cn(C5CCOCC5)c5ncnc(N)c45)cc3)c2)cn1` [Compound 6], the Ki in assay [1] was under 100 nM. Besides, in assay [2], the EC50 is under 100 nM.
For `CC(C)n1cc(-c2ccc(Oc3cc(F)cc(OCc4ccccc4)c3)cc2)c2c(N)ncnc21` [Compound 9], the Ki in assay [1] is under 100 nM. Also, in assay [2], the EC50 lay within 100 to 1000 nM.
For `CC(C)n1cc(-c2ccc(Oc3cc(F)cc(OCc4cncnc4)c3)cc2)c2c(N)ncnc21` [Compound 17] the same measures were under 100 nM and under 100 nM.
As to `CC(=O)N1CCC[C@@H]1Cn1cc(-c2ccc(Oc3cc(F)cc(OCc4cnc(C)nc4)c3)cc2)c2c(N)ncnc21` [Compound 22], the EC50 was under 100 nM in assay [3] and 100 to 1000 nM in assay [2].
For the compound `Cc1ncc(COc2cc(F)cc(Oc3ccc(-c4cn(C[C@@H]5CCCN5)c5ncnc(N)c45)cc3)c2)s1` [Compound 7], the inhibitory constant (Ki) in assay [1] was under 100 nM. Further, the EC50 in assay [2] was 100 to 1000 nM.
As to `CC(C)n1cc(-c2ccc(Oc3cc(F)cc(OCc4cnc(C5CC5)nc4)c3)cc2)c2c(N)ncnc21` [Compound 14], in assay [1], the Ki is under 100 nM. For the same compound, the EC50 in assay [2] fell in the range of 100 to 1000 nM.
`Cc1ncc(COc2cc(F)cc(Oc3ccc(-c4cn(C[C@@H]5CCCN5)c5ncnc(N)c45)cc3)c2)cn1` [Compound 8]: in assay [1], the inhibition constant (Ki) was under 100 nM. Also, the EC50 in assay [2] was in the range of 100 to 1000 nM.
For `CCCc1ncc(COc2cc(F)cc(Oc3ccc(-c4cn(C(C)C)c5ncnc(N)c45)cc3)c2)cn1` [Compound 12], in that order: under 100 nM and 100 to 1000 nM.
For the compound `Cc1ncc(COc2cc(F)cc(Oc3ccc(-c4cn(C(C)C)c5ncnc(N)c45)cc3)c2)s1` [Compound 1], the Ki in assay [1] is under 100 nM. In assay [2], the EC50 was under 100 nM.
On to `Cc1ncc(COc2ccc(F)c(Oc3ccc(-c4cn(C(C)C)c5ncnc(N)c45)cc3)c2)cn1` [Compound 11], for which the Ki in assay [1] is under 100 nM. Also, the EC50 in assay [2] was in the range of 100 to 1000 nM.
On to `CC(=O)N1CCC[C@@H](n2cc(-c3ccc(Oc4cc(F)cc(OCc5cnc(C)nc5)c4)cc3)c3c(N)ncnc32)C1` [Compound 25], for which the EC50 in assay [3] and in assay [2] was under 100 nM each time.
For `Cc1ccc(COc2cc(F)cc(Oc3ccc(-c4cn(C5CCOCC5)c5ncnc(N)c45)cc3)c2)cn1` [Compound 4], the Ki in assay [1] is under 100 nM. Further, the EC50 in assay [2] was under 100 nM.
Take `Cc1ncc(COc2cccc(Oc3ccc(-c4cn(C(C)C)c5ncnc(N)c45)cc3)c2F)cn1` [Compound 19]: the EC50 in assay [3] and in assay [2] was under 100 nM each time.
`Cc1ncc(COc2cc(F)cc(Oc3ccc(-c4cn(C[C@H]5CCCN5)c5ncnc(N)c45)cc3)c2)cn1` [Compound 10]: the Ki in assay [1] is 100 to 1000 nM. Moreover, the EC50 in assay [2] is 100 to 1000 nM.
`CC(C)c1ncc(COc2cc(F)cc(Oc3ccc(-c4cn(C(C)C)c5ncnc(N)c45)cc3)c2)cn1` [Compound 13]: in assay [1], the inhibitory constant (Ki) is under 100 nM. Moreover, the EC50 in assay [2] is 100 to 1000 nM.
Consider `Cc1ncc(COc2cc(F)cc(Oc3ccc(-c4cn([C@H]5C[C@@H](O)C5)c5ncnc(N)c45)cc3)c2)cn1` [Compound 26], for which the EC50 in assay [3] and in assay [2] was under 100 nM throughout.
Regarding `Cc1ncc(COc2cc(F)cc(Oc3ccc(-c4cn([C@H]5C[C@@H](N6CCOCC6)C5)c5ncnc(N)c45)cc3)c2)cn1` [Compound 23], the Ki in assay [1] is under 100 nM. The EC50 in assay [2] is under 100 nM.
In the case of `Cc1ccc(COc2cc(F)cc(Oc3ccc(-c4cn(C(C)C)c5ncnc(N)c45)cc3)c2)cn1` [Compound 2], the Ki in assay [1] is under 100 nM. Further, the EC50 in assay [2] is under 100 nM.
Turning to `Cc1ncc(COc2cc(F)cc(Oc3ccc(-c4cn([C@H]5C[C@@](C)(O)C5)c5ncnc(N)c45)cc3)c2)cn1` [Compound 18], the Ki in assay [1] was under 100 nM. Also, the EC50 in assay [2] is under 100 nM.
Turning to `Cc1ncc(COc2cc(F)cc(Oc3ccc(-c4cn(C(C)(C)CO)c5ncnc(N)c45)cc3)c2)cn1` [Compound 24], the EC50 in assay [3] is 100 to 1000 nM; in assay [2], under 100 nM.
With `Cc1ncc(COc2cc(F)cc(Oc3ccc(-c4cn(C(C)C)c5ncnc(N)c45)cc3)c2)cn1` [Compound 3], the Ki in assay [1] is under 100 nM. Besides, the EC50 in assay [2] was under 100 nM.
